Reference: patent publication US7794965B2, “Method of identifying modulators of PP2A methylase” (Signum Biosciences, Inc., priority 2002, dated 2010)
Read-outs that look alike come from different tables or passages of the source.

Tests used:
methylation of PP2A = methylation of PP2A (Homo sapiens, UniProt P67775); settings: cited from earlier work
[1] = target: PP2A phosphatase activity (Homo sapiens, UniProt P67775); settings: cited from earlier work
cultured human neurons = settings: Merrick, 1997; cited from earlier work
[2] = tested on: PP2A methylation in SH-SY5Y neuroblastoma cells; experiment: PP2A methylation in cultured SH-SY5Y cells, western blotting with antibodies 6A3 (total) and 4D9 (methylated); assay type: cell-based; settings: homocysteine 0, 25, 50, 100, and 200 mM, three hours
Description: SH-SY5Y cells were propagated in a 1:1 mixture of Eagle's Minimum Essential Medium and Ham's F12 medium supplemented with 10% Fetal Bovine Serum, Penicillin (100 units/ml)/Streptomycin ([…]) and 2 mM L-Glutamine. The flasks were incubated at 37° C. (5% CO2). Media was changed every 4-6 days until the cells were confluent. On confluency, cells were treated with 25-200 mM homocysteine for 3 hours. […] Each membrane was blocked for 1 hr in 5% milk, followed by an hour incubation in antibodies, 6A3 (1:50) and 4D9 (1:25) which recognize total and methylated PP2A, respectively.
Inhibition of PP2A methylation by homocysteine was determined in cultured cells. Total PP2A and methylated PP2A was determined by western blotting in SH-SY5Y neuroblastoma cells. Homocysteine was added to confluent SH-SY5Y cells to concentrations of […]. Three hours after adding homocysteine the cells were harvested into cold PBS, mixed with SDS sample buffer, and then analyzed by SDS-PAGE and western blotting. To determine total PP2A, the blots were probed with monoclonal antibody 6A3, which recognizes total PP2A. To determine methylated PP2A the blots were probed with monoclonal antibody 4D9, which recognizes methylated but not unmethylated PP2A.

[3] = for Hcy, total plasma homocysteine, ratio methionine-enriched / not enriched / SAH in brain homogenates, ratio methionine-enriched / not enriched / SAM in brain homogenates, ratio methionine-enriched / not enriched: B6, B12
From the text: (§1) Male C57BL/J6 mice were obtained from the Jackson Laboratories (Bar Harbor, Me.) at 4 weeks of age. Mice were fed on a vitamin sufficient or a vitamin deficient diet for 9 weeks. All of the vitamin-sufficient diets contained folate, vitamin B6, and vitamin B12. All of the vitamin deficient diets lacked these vitamins. […] Another group was fed a vitamin deficient diet that contained basal levels of methionine (Harlan Teklad TD00428). The same was true for mice on the vitamin-sufficient diet. One group was fed a diet enriched for methionine (Harlan Teklad TD98002) and another was fed standard rodent chow 5001 c (Lab Diets). The mice were allowed free access to both food and water.
SAM and SAH levels were measured by high performance liquid chromatography (HPLC) according to the method described by Fu et al. in “Interrelations between plasma homocysteine and intracellular S-adenosylhomocysteine;” Biochem Biophys Res Commun 271: 47-53 (2000), which is incorporated herein by reference in its entirety particularly in parts pertinent to HPLC assays of SAM and SAH.
Samples of mouse brain were weighed and homogenized in two times weight/volume of 0.5 HCIO4. Samples were centrifuged at 12,500 g for 5 min and the supernatant was filtered through a 0.22 mm membrane. Aliquots of 25 ml were injected and run on a hypersil […] particle size, c18 (ODS), 250×4.6 mm (Phenomenex) column with an isocratic elution at 1.3 ml/min. The mobile phase consisted of 0.10 mM sodium acetate, 2.4 mM heptanesulfonic acid, 4.2% acetonitrile, and 50 mM sodium perchlorate. The pH was adjusted to 3.5 with 70% perchloric acid.
Standards were run at five different concentrations: 10,000, 5,000, 2,000, 1,000, and 500 pM for SAM, and 10,000, 5,000, 1,000, 100, and 50 μM for SAH. Linear curves, obtained from the SAM and SAH standards, were used to calculate concentrations of SAM and SAH in the brain homogenates.
Homocysteine was measured by HPLC in serum samples reduced with tri-n-butylphosphine.
Serum was prepared from whole blood, which was allowed to clot for 30 min on ice and then centrifuged. Samples were aliquoted, snap frozen and stored at −80° C. for analysis. For analysis, 150 ml of serum was thawed and reduced in a mixture containing 50 ml of 0.1 M potassium borate, 2 mM EDTA, pH 9.5, 0.2 mM mercaptopropionylglycine, and 20 ml of 100 ml/I of tri-n-butylphosphine in dimethylformamide. The reduction was allowed to proceed for 30 min on ice after which samples were mixed with 125 ml of 0.6 M perchloric acid containing 1 mM EDTA and allowed to react at room temperature for 10 min, and then centrifuged at 15500 g for 10 min. 100 ml was withdrawn from the middle of the supernatant and mixed with 200 ml of 0.2M potassium borate, pH 10.5, containing 5 mM EDTA. 100 ml of 1.0 gm Ammonium 7-fluorobenzo-2-oxa-1,3-diazole-4-sulphonate/I.OL 0.2M potassium borate, pH 9.5, was added and the mixture incubated at 60° C. for 60 min. Samples were cooled and then analyzed using HPLC. 10 ml of derivatized sample was used for each injection. Buffer A (0.1 M acetate buffer, pH 4.0, containing 20 ml/I methanol) and Buffer B (0.1 M acetate buffer, pH 6.0, containing 50 ml/I methanol) were run at a flow rate of 1.0 ml/min from A to B over 12.5 min then 2.5 min of B, a 3.0 min gradient back to A and 2.0 min A before next injection. A standard was also analyzed to quantify values of homocysteine. Mercaptopropionylglycine was added to the reduction buffer as an internal standard to monitor any potential loss during reduction.
Mice were fed on diets containing or deficient in folate, vitamin B6 and B12 as set out above. SAM, SAH and Hcy were determined as described above.
(§2) The effects of methionine enrichment were determined either in the presence or absence of a deficiency for folate, vitamin B6, and vitamin B12.

tau = settings: for CP13 tau phosphorylation, ratio methionine-enriched / not enriched / PHF1 tau phosphorylation, ratio methionine-enriched / not enriched / TG5 total tau, ratio methionine-enriched / not enriched: B6, B12
From the text: as §1
Mice brains were homogenized in 10 times volume/weight buffer containing:
62.5 mM Tris-HCl, pH 6.8, 10% (w/v) glycerol, 5% (v/v) [3-mercaptoethanol, 2.3% (w/v) SDS, 100 nM okadaic acid (OA), 1 mM phenylmethylsulfonyl fluoride, and 1 mM EDTA. This is a modified version of the buffer reported by Planel et al. [Planel, 2001 #54]. The homogenates were boiled for 5 mins and then centrifuged for 15 mins at 4° C. in a Fisher micro-centrifuge model 235A. The supernatant was then diluted 1:2 in SDS-sample buffer and loaded on a 12.5% percent SDS-PAGE gel. Gels were run at 200 V, transferred onto PVDF membrane at 100 V for 1 hr. Each membrane was blocked for 1 hr in 5% milk, followed by overnight incubation in antibodies, CP13 (1:200) and PHF1 (1:500) which recognize phosphoserine 202 and phosphoserine 396/404 respectively [Greenberg, 1992 #55; Otvos, 1994 #59] and TG5 (1:1000), which recognizes a phosphorylation independent epitope on tau [Jicha, 1997 #56]. The following day, membranes were washed 5× for 5 mins each with TBS containing tween (TBST) and then incubated with goat anti-mouse IgG horseradish peroxidase coupled secondary antibody, diluted 1:25,000 in 5% milk prepared in TBS, for 1 hr. Following the secondary antibody incubation, the membranes were washed 5× for 10 mins in TBST and developed with ECL plus (Amersham). Signal intensities of X-ray film exposures for each membrane were quantified by scanning densitometry using NIH Image.
Mice were fed on diets containing or deficient in folate, vitamin B6, and vitamin B12 as described above. Tau phosphorylation was determined in the mice by SDS-PAGE and western blotting using the procedures described above. The western blots were probed using three different tau-specific monoclonal antibodies, as discussed above.
as §2
Ratios are given for values obtained from mice fed diets enriched with methionine divided by values obtained from mice fed diets not enriched for methionine.
Feeding and assays were performed as described above. Hcy, total plasma homocysteine; SAM and SAH values measured in brain homogenates. CP13 and PHF1, tau phosphorylation and TG5, total tau (see data below) body, brain, and heart weights (see data in examples above).

[4] = excess methionine added to vitamin-deficient diets

methylation of PP2A, sequence (P67775 whole entry): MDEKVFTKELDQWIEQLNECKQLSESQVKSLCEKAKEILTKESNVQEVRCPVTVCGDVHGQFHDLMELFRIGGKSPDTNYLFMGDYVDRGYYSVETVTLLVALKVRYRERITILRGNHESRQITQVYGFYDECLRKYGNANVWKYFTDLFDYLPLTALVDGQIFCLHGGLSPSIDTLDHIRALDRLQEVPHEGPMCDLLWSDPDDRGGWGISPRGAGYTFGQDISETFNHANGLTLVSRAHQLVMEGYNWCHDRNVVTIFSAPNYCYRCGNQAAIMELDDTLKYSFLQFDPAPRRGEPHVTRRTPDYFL
PP2A phosphatase activity, sequence (P67775 whole entry): as above

Structure (SMILES): C=C1[C@@H](O)[C@@H]2O[C@]3(CC[C@H](/C=C/[C@@H](C)[C@@H]4CC(C)=C[C@@]5(O[C@H](C[C@@](C)(O)C(=O)O)CC[C@H]5O)O4)O3)CC[C@H]2O[C@@H]1[C@@H](O)C[C@H](C)[C@H]1O[C@@]2(CCCCO2)CC[C@H]1C [Okadaic acid]
- inhibition of methylation of PP2A (methylation of PP2A): potent inhibitor
- inhibition of PP2A phosphatase activity [1]: potent inhibitor
- effect on tau and microtubules in cultured human neurons (cultured human neurons): tau hyperphosphorylation, reduced binding of tau to MTs, MT depolymerization, and axonal degeneration

Structure (SMILES): N[C@@H](CCS)C(=O)O [homocysteine]
- Total PP2A (antibody 6A3) [2]: remained much the same
- level of methylated PP2A (antibody 4D9) [2]: declined dramatically

Structure (SMILES): CSCC[C@H](N)C(=O)O [methionine]
- Hcy, total plasma homocysteine, ratio methionine-enriched / not enriched ([3]; diets with folate): 1.9
- SAH in brain homogenates, ratio methionine-enriched / not enriched ([3]; diets with folate): 0.8
- SAM in brain homogenates, ratio methionine-enriched / not enriched ([3]; diets with folate): 0.9
- Hcy, total plasma homocysteine, ratio methionine-enriched / not enriched ([3]; diets without folate): 0.9
- SAH in brain homogenates, ratio methionine-enriched / not enriched ([3]; diets without folate): 1.1
- SAM in brain homogenates, ratio methionine-enriched / not enriched ([3]; diets without folate): 1.2
- change in plasma Hcy ([3]; excess methionine added to the normal diet): approximately two-fold increase
- effect on methylation metabolism [3, 4]: did not have a sizeable significant effect
- CP13 tau phosphorylation, ratio methionine-enriched / not enriched (tau; diets with folate): 1.1
- PHF1 tau phosphorylation, ratio methionine-enriched / not enriched (tau; diets with folate): 1.2
- TG5 total tau, ratio methionine-enriched / not enriched (tau; diets with folate): 1.2
- CP13 tau phosphorylation, ratio methionine-enriched / not enriched (tau; diets without folate): 1
- PHF1 tau phosphorylation, ratio methionine-enriched / not enriched (tau; diets without folate): 0.9
- TG5 total tau, ratio methionine-enriched / not enriched (tau; diets without folate): 1
- effect on tau hyperphosphorylation (tau; [4]): did not have a sizeable significant effect
